System: 425362-245-T-J1 tumor spheroids, viability % test/control
Test: Anticancer human tumor 425362-245-T-J1 patient-derived melanoma cell line growth inhibition
Settings: spheroids with HUVEC and MSC; for IC50: curve of first compound; for viability, T/C: stronger effect = lower value
From the text: Multicellular complex tumor spheroid response to DNA repair inhibitors in combination with DNA-damaging drugs
This study explores the anticancer activities of DNA-damaging drugs and inhibitors of DNA damage repair, both as single agents and in combinations. Complex tumor spheroids comprised of malignant cells, endothelial cells and mesenchymal stem cells served as an in vitro model for human solid tumors. This model system incorporates physiologically relevant features and patient-derived or established malignant cell lines with clinically relevant genetic alterations from many tumor types. Twenty-six patient-derived or established malignant cell lines were evaluated representing sarcoma, melanoma, small cell lung cancer (SCLC), non-small cell lung cancer (NSCLC), as well as bladder, ovarian and pancreatic cancers. The concentration ranges selected for each drug and investigational agent were based upon clinically achievable concentrations if the clinical Cmax of the agent was known.
Compounds. The drugs and compounds olaparib (NSC753686), talazoparib (NSC767125), berzosertib (NSC777718), elimusertib (NSC800525), nedisertib (NSC802822), VX-984 (NSC792969), AZD-1390 (NSC803789), temozolomide (NSC362856), topotecan (NSC609699), trabectedin (NSC813783), staurosporine (NSC755774), and gemcitabine (NSC613327) were obtained from the National Cancer Institute (NCI) Developmental Therapeutics Program Chemical Repository. The FDA-approved anticancer drug set is available from the Developmental Therapeutics Program at https://dtp.cancer.gov/organization/dscb/obtaining/available_plates.htm. […] The stock solutions were prepared in dimethyl sulfoxide (DMSO, Sigma-Aldrich, St. Louis, MO, cat. D2650) at 400-fold the tested concentration and stored at -70 degrees C. Prior to their use, the stock solutions were diluted in fresh medium and the final DMSO concentration in the assay was 0.25% (v/v). All drugs and investigational agents were tested over a range starting from a high concentration at or near the clinical Cmax and decreasing in half-log increments. If the clinical Cmax for an agent had not been determined, the highest concentration tested was 10 microM.
Cell Lines. The patient-derived cancer cell (PDC) lines: 156681-154-R-J1-PDC, 283228-195-R-J1-PDC, 287954-098-R-J1-PDC, 292921-168-R-J2-PDC, 349418-098-R-PDC, 425362-245-T-J1-PDC, 556581-035-R-J1-PDC, and BL0293-F563-PDC were received from the NCI Patient-Derived Models Repository (PDMR, https://pdmr.cancer.gov). The established cell lines HS-SY-2 (RRID:CVCL_8719), MPNST, and SYO-1 (RRID:CVCL_7146) were obtained from the Sloan Kettering Institute. The alveolar soft parts sarcoma cell line ASPS-1 (RRID:CVCL_S738) was established at the NCI and grown from internal seed stocks. The following established cell lines were purchased from the American Type Culture Collection (ATCC, Manassas, VA): G-401 (ATCC, cat. CRL-1441, RRID:CVCL_0270), SW982 (ATCC, cat. HTB-93, RRID:CVCL_1734), VA-ES-BJ (ATCC, cat. CRL-2138, RRID:CVCL_1785), NCI-H719 (ATCC, cat. CRL-5837, RRID:CVCL_1582), NCI-H196 (ATCC, cat. CRL-5823, RRID:CVCL_1509), NCI-H841 (ATCC, cat. CRL-5845, RRID:CVCL_1595), NCI-H1618 (ATCC, cat. CRL-5879, RRID:CVCL_1480), NCI-H1876 (ATCC, cat. CRL-5902, RRID:CVCL_1503), DMS 114 (ATCC, cat. CRL-2066; RRID:CVCL_1174), NCI-H211 (ATCC, cat. CRL-5824; RRID:CVCL_1529), and SW 1271 (ATCC, cat. CRL-2177, RRID:CVCL_1716). The small cell lung cancer cell line COR-L88 was purchased from Sigma-Aldrich (cat. 92031917-1VL, RRID:CVCL_1141). The non-small cell lung cancer cell lines NCI-H226 (RRID:CVCL_1544) and NCI-H322M (RRID:CVCL_1557) were established at the NCI and grown from internal seed stocks. Pooled donor human umbilical vein endothelial cells (HUVEC, Lonza, cat. CC-2519) and human mesenchymal stem cells (hMSC, Lonza, cat. PT-2501) were purchased from Lonza (Walkersville, MD).
Cell Culture. All cells were maintained in an incubator at 37 degrees C and 5% CO2 with 95% humidity. […]
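Note: spheroids exposed to agents for 7 days.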

`CC1COCCN1c1cc(-c2ccnn2C)c2ccnc(-c3ccn[nH]3)c2n1` (stereo not given) + Cn1nnc2c(C(N)=O)ncn2c1=O was tested, and the IC50 (second compound 1 µM) was < 31.6 nM, the IC50 (second compound 3.16 µM) was < 31.6 nM and the IC50 (second compound 10 µM) was < 31.6 nM. For the same molecule, the IC50 (second compound 31.6 µM) was < 31.6 nM, the IC50 (second compound 100 µM) was < 31.6 nM and the viability, T/C (second compound 1 µM, first compound 0.0316 µM) was 34%. The viability, T/C (second compound 1 µM, first compound 0.1 µM) was 9.93%, the viability, T/C (second compound 1 µM, first compound 0.316 µM) was 9.37% and the viability, T/C (second compound 1 µM, first compound 1 µM) was 7.42%. It also gave a viability, T/C (second compound 1 µM, first compound 3.16 µM) of 8.52%, a viability, T/C (second compound 1 µM, first compound 10 µM) of 7.26% and a viability, T/C (second compound 3.16 µM, first compound 0.0316 µM) of 46%. It also gave a viability, T/C (second compound 3.16 µM, first compound 0.1 µM) of 13.1%, a viability, T/C (second compound 3.16 µM, first compound 0.316 µM) of 8.7% and a viability, T/C (second compound 3.16 µM, first compound 1 µM) of 8.72%. It also gave a viability, T/C (second compound 3.16 µM, first compound 3.16 µM) of 9.76%, a viability, T/C (second compound 3.16 µM, first compound 10 µM) of 9.55% and a viability, T/C (second compound 10 µM, first compound 0.0316 µM) of 33.1%. For the same molecule, the viability, T/C (second compound 10 µM, first compound 0.1 µM) was 12.4%, the viability, T/C (second compound 10 µM, first compound 0.316 µM) was 6.43% and the viability, T/C (second compound 10 µM, first compound 1 µM) was 8.73%. It also gave a viability, T/C (second compound 10 µM, first compound 3.16 µM) of 8.17%, a viability, T/C (second compound 10 µM, first compound 10 µM) of 7.97% and a viability, T/C (second compound 31.6 µM, first compound 0.0316 µM) of 41.4%. It also gave a viability, T/C (second compound 31.6 µM, first compound 0.1 µM) of 10.8%, a viability, T/C (second compound 31.6 µM, first compound 0.316 µM) of 8% and a viability, T/C (second compound 31.6 µM, first compound 1 µM) of 8.25%. It also gave a viability, T/C (second compound 31.6 µM, first compound 3.16 µM) of 8.57%, a viability, T/C (second compound 31.6 µM, first compound 10 µM) of 9.27% and a viability, T/C (second compound 100 µM, first compound 0.0316 µM) of 16%. It also gave a viability, T/C (second compound 100 µM, first compound 0.1 µM) of 8.9%, a viability, T/C (second compound 100 µM, first compound 0.316 µM) of 6.62% and a viability, T/C (second compound 100 µM, first compound 1 µM) of 5.43%. For the same molecule, the viability, T/C (second compound 100 µM, first compound 3.16 µM) was 8.9% and the viability, T/C (second compound 100 µM, first compound 10 µM) was 6.85%.
